Results published in patent US5506340A, “Tumor necrosis factor inhibitors” (Centecor, Inc., priority 1994, dated 1996).
No end group written: not given here.

Target: T1, human TNFα (Homo sapiens, UniProt P01375)
T1 construct: purchased Biosource, Camarillo, Calif
Assay: p55 receptor/IgG fusion protein binding assay (inhibition of TNFα capture by p55-Ig coated plate)
Details: TNFα 25 ng/ml preincubated with peptide, read-out: IC50 (concentration necessary to inhibit TNFα by 50%), inhibition of binding of TNFα to p55TNFr-IgG chimeric construct
Experimental: This assay was designed to identify peptides which bind to human TNFα and thereby prevent the capture of the TNFα by a microtiter plate coated with p55-Ig fusion protein. A constant concentration of human TNFα is preincubated with the test peptide and then incubated on the p55-Ig coated microtiter wells. Bound TNFα is detected using a specific antisera and an alkaline phosphatase-conjugated probe.
A 96-well, U-bottom polyvinylchloride microtiter plate was coated with 50 μl/well of p55-Ig fusion protein at 5 μg/ml in 0.01M sodium phosphate, 0.15M sodium chloride (PBS) by incubation overnight at 4° C. or 2 hours at 37° C. […] 29, 1993 which is incorporated herein by reference. The plate was washed three times with 0.05% Tween-20 in PBS, then blocked, by adding 150 μl/well of assay buffer (10 mM N-2-hydroxyethylpiperazine-N'-[…] (HEPES) pH 7.2, containing 0.1% porcine gelatin, 0.1% Tween-80, and 0.01% sodium azide) and continuing incubation for 1 hour at 37° C. or at 4° C. for 1-7 days.
Lyophilized peptides to be tested were weighed in tared 12×75 mm polystyrene tubes and reconstituted to a concentration of 1.2 mM with assay buffer. Each suspension was sonicated in a water bath for 1-5 minutes and vortexed 15-30 seconds to disperse large particles. Serial dilutions of each peptide suspension were prepared using assay buffer in a 96-well polystyrene microtiter plate. Additional wells received Fab fragment of the mouse/human monoclonal anti-human TNFα antibody cA2 (positive control) or assay buffer (negative control). […] The polystyrene dilution plate was then sealed and incubated 1 hour at room temperature on an orbital mixer set at moderate speed.
Following the sample preincubation, blocker was discarded from the p55-Ig coated plate and blotted dry. Aliquots (50 μl) of each peptide or control were transferred into duplicate wells on the p55-Ig coated plate which was then sealed and incubated 1 hour at 37° C. Duplicate wells containing only assay buffer were included as a plate blank. After incubation the p55-Ig plate was washed three times with 0.05% Tween-20 in PBS.
All incubations were for 1 hour at 37° C. and after each incubation the plate was washed three times with 0.05% Tween-20 in PBS. Fifty microliters of alkaline phosphatase substrate solution (alkaline buffer (Sigma, St. Louis, Mo.) diluted 1:500 in deionized water plus one 5 mg tablet of p-nitrophenyl phosphate (Sigma, St. Louis, Mo.) per 5 ml of diluted buffer) was added to all wells and incubation continued for 20 minutes at room temperature. Color development was stopped by adding to all wells 50 μl of 3N sodium hydroxide. The optical density (OD) at 405 nm was measured on a microtiter plate reader (Molecular Devices Vmax plate reader), with the plate blank wells subtracted as background. The activity of each peptide was then expressed as the percent inhibition of TNFα capture by the p55-Ig plate, relative to the amount of TNFα captured in wells containing only assay buffer (negative control), as follows:
The inhibition of binding of TNFα to p55TNFr-IgG chimeric construct was performed as described above using several embodiments of the invention. The peptides were tested to determine the concentration necessary to inhibit TNFα by 50% (IC50) relative to TNFα activity in the absence of the peptide.

T1 sequence (P01375 77-233 limits assumed): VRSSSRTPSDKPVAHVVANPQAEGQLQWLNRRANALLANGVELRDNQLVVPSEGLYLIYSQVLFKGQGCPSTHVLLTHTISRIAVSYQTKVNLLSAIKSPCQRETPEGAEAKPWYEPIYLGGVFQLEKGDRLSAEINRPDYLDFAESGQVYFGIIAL

Substance	IC50
PGLQEPWLHSMYHGA-NH2	600 µM
WLHSMYHGAAFQLTQ-NH2	480 µM
YLAHEVQLFSSQYPF-NH2	370 µM
QEPWLHSMYHGAAFQ-NH2	310 µM
MVYPGLQEPWLHSMY-NH2	850 µM
